# Measured values as given in US20030119903A1, “Use of trimebutine for treating pain” (priority 1999, published 2003).
# Like-named read-outs stand apart in the source and are kept apart here.
# Assays:
# [1] = system: sodium currents in DRG neurons; test: whole cell patch clamp, sodium currents in DRG neurons; type: cell-based, rat
# [2] = system: veratridine-induced glutamate release; test: veratridine-induced [3H]-glutamate release from rat spinal cord slices; conditions: for IC50: read-out: IC50, inhibition of veratridine-induced glutamate release
# [3] = system: formalin induced pain; test: formalin-induced pain; conditions: for ED50: Rattus norvegicus, sc, read-out: ED50, formalin induced pain (licking time)
# [4] = system: sodium currents in GH3 cells; test: sodium currents in GH3 cells; type: cell-based, rat; conditions: read-out: IC50, sodium current block (summary statement)
# [5] = system: voltage-dependent Kv1.1 and Kv1.2 channels; test: two-electrode voltage clamp, potassium currents in Xenopus oocytes; conditions: 10 μM, Kv1.1 and Kv1.2 in Xenopus oocytes
# Description: (B) Potassium currents expressed in Xenopus oocytes. Superimposed current traces induced by 400 ms depolarizations at −40 to +20 mV (in 10 mV step from −80 mV).
# Two voltage-dependent K^+ channels are considered: the shaker-related Kv1.1 and Kv1.2 channels.
# The rat voltage-dependent rKv1.1 and rKv1.2 channels are expressed in Xenopus oocytes. […] The transcriptions are done using the Ambion Megascript (Ambion, USA) and the cRNAs are stored in water at 1 mg/ml. cRNAs injection in Xenopus oocytes is done at 2-4 ng/ml. Defolliculated oocytes are kept in ND96 medium supplemented with 0.1 U/ml gentamicin. The currents are recorded 1-6 days after injection.
# A two-electrode voltage clamp amplifier (Geneclamp 500, Axon Instruments) is used to record K^+ currents from Xenopus oocytes. The KCl (3M)-filled electrodes had tip resistance<1 MΩ. The oocytes are continuously superfused with a Ca^2+-free ND96 medium in order to abolish the large Ca^2+-activated Cl^− current present in these cells.
# [6] = system: μ-, δ- and κ- opioid receptors; conditions: rat brain, guinea-pig and canine intestinal receptors; no subtype selectivity; cited from earlier work
# [7] = volunteers, tablets of 900 mg trimebutine, oral
# [8] = system: PGE2-induced hyperalgesia; test: PGE2-induced hyperalgesia (Randall and Selitto's test)
# Description: Test is carried out with Sprague-Dawley male rats (100-120 grams) on arrival. They are housed 5 per cage and acclimated to the conditions of the animal room for 5 days under a 12/12 day/night cycle and a constant room temperature of 22° C. Food and water are provided ad libidum.
# A solution of PGE2 (1 mg/ml) is prepared as a stock solution in a 10% (v/v) alcohol in apyrogen sterile saline and stored at 4° C. for 4 days.
# A solution of PGE2 (1 μg/ml) is freshly prepared twice daily in sterile saline and 100 μl is injected subplantar into the left paw of rat, twice daily for 4 days. Using this protocol, hyperalgesia is present for at least a week following completion for 4 days of treatment.
# Hyperalgesia is measured by the Randall and Selitto's test (Randall and Setillo,1957) using an analgesimeter (Ugo Basile). The analgesimeter is basically a device which exerts a force that increases at constant rate. The force is applied to the animal's paw which is placed on a small plinth under a cone-shaped pusher. The operator depresses a pedal-switch to start the mechanism with exerts the force. The nociceptive threshold is defined as the force at which the rat withdraws its paw. The threshold is determined before and after treatment.
# % of antinociceptive activity is calculated as follows: [formula]
# [9] = system: unilateral peripheral mononeuropathy; test: rat mononeuropathy, vocalization threshold to paw pressure; conditions: for duration of the antinociceptive effect: (S)-Nor-TMB s.c., morphine i.v.
# [10] = system: streptozocin-induced hyperalgesia; test: streptozocin-induced diabetic rats, tail immersion test; type: in vivo, rat; conditions: 30 mg/kg s.c. single dose, 30 min or 60 min before test, 44° C.
# Excerpt: FIG. 9: Effect of TMB in diabetic rats.
# Streptozocin is a selective pancreatic β-cell toxin, which has been used to induce experimental diabetes in laboratory animals (Tomlinson K. C. et al., 1992,). The resultant loss of endogenous insulin induced by streptozocin mimics the characteristics of type I, or insulin-dependent, diabetes. Streptozocin-induced diabetes has recently been described as a model of chronic pain in rats. It has been reported that streptozocin administration leads to mechanical, thermal, and chemical hyperalgesia as well as mechanical hypersensitivity (Courteix C. et al., 1993; Calcutt N. A. et al., 1996). The most common symptoms of diabetic neuropathy appear to be spontaneous burning pain and mechanical hypersensitivity in the feet or lower limbs.
# Test is carried out with male Sprague Dawley rats (Iffa-Credo) weighing 160-180 grams on arrival. […] Food and water are provided ad libidum.
# Animals are intraperitoneally injected with streptozocin 75 mg/kg. Control animals are given vehicle in the same conditions. Diabetes are confirmed once a week after injection by measurement of tail vein blood glucose levels with Boehriger glycemia test. […]
# The tail of the rat is immersed in a water bath at 44° C. […] Results are expressed as the mean+/−SEM and analysed by a Student's t test after an analysis of variance (Anova one way).
compound,measurement,setting,value
"CCC(COC(=O)c1cc(OC)c(OC)c(OC)c1)(c1ccccc1)N(C)C.O=C(O)/C=C\C(=O)O (racemic) [trimebutine, 2-dimethylamino-2-phenylbutyl 3,4,5-trimethoxybenzoate hydrogen maleate]",blocking rate kon,[1],35-40 10^−3s^−1 μM^−1
same,unblocking rate koff,[1],29 10^−3s^−1
same,time constant of channel block,[1]; 10 μM,2.2 s
same,"τoff, time constant of recovery from block",[1]; n=6,34 ± 4 s
same,IC50,"[1]; read-out: IC50, best fit to Hill function (FIG. 4D legend)",0.69 µM
same,IC50,"[1]; read-out: IC50, sodium current block (dose-response curve, text)",1.05 ± 0.09 µM
same,IC50,"[1]; read-out: IC50, sodium current block (summary statement)",< 1 µM
same,concentration at which inhibition of glutamate release is seen / significant,[2],higher than 60 μM
same,IC50,[2]; Rattus norvegicus,> 100 µM
same,ED50,[3],231 mg/kg
same,IC50,[4],< 1 µM
same,K+ current block,[5],23±6%
same,activity at opioid receptors,[6],weak agonist activity
same,time of maximal plasma concentration,[7],1 h
"CC[C@@](COC(=O)c1cc(OC)c(OC)c(OC)c1)(NC)c1ccccc1 [(R)-Nor-TMB, (R) N-desmethyl trimebutine]",IC50,[2]; Rattus norvegicus,16.3 µM
CC[C@](COC(=O)c1cc(OC)c(OC)c(OC)c1)(c1ccccc1)N(C)C [(R)-Trimebutine],IC50,[2]; Rattus norvegicus,> 100 µM
same,inhibition of PGE2-induced hyperalgesia,[8]; 100 mg/kg s.c.,57%
"CC[C@](COC(=O)c1cc(OC)c(OC)c(OC)c1)(NC)c1ccccc1 [(S)-Nor-TMB, (S)-N-desmethyl trimebutine]",IC50,[2]; Rattus norvegicus,6.3 µM
same,antinociceptive effect compared with morphine 1 mg/kg i.v.,"[9]; 3 and 10 mg/kg s.c., amplitude and duration",superior to that of morphine
same,duration of the antinociceptive effect,[9],more than 90 min
same,dose from which the increase of vocalization pressure threshold is present,[9]; s.c.,≥ 1 mg/kg
same,"antinociceptive effect, contralateral paw","[9]; vocalization threshold, s.c.",only at the highest dose (10 mg/kg)
same,"antinociceptive effect, nerve-injured paw","[9]; vocalization threshold, s.c.",significant at all the three doses tested
same,reaction time of tail withdrawal from hot water,[10],the same as in control (non diabetic) rats
same,inhibition of PGE2-induced hyperalgesia,[8]; 20 mg/kg s.c.,up to 89%
same,ED50,"[8]; Rattus norvegicus, sc, read-out: ED50, PGE2-induced hyperalgesia",7 mg/kg
CC[C@@](COC(=O)c1cc(OC)c(OC)c(OC)c1)(c1ccccc1)N(C)C [(S)-Trimebutine],IC50,[2]; Rattus norvegicus,15.2 µM
"CCC(COC(=O)c1cc(OC)c(OC)c(OC)c1)(NC)c1ccccc1 (stereo not shown) [Nor-TMB, N-desmethyl trimebutine]","inhibition parameters (IC50, nH) compared with trimebutine",[1]; DRG neurons,very similar
same,IC50,"[2]; veratridine 40 μM, rat spinal cord slices",8.4 µM
same,"ED50, formalin induced pain (licking time)","[3]; s.c., 30 min before testing",17 mg/kg
CCCCN1CCCCC1C(=O)Nc1c(C)cccc1C (stereo not shown) [bupivacaine],IC50,[2]; Rattus norvegicus,8.2 µM
CN1CC[C@]23c4c5ccc(O)c4O[C@H]2[C@@H](O)C=C[C@H]3[C@H]1C5 [morphine],effect on veratridine-induced glutamate release,[2]; up to 100 μM,inactive
same,duration of the antinociceptive effect,[9],less than 60 min
same,ED50,[3],0.51 mg/kg
